# Reference: ChEMBL document CHEMBL1201862, “PubChem BioAssay data set” (2004)
#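 Compound exposure: 48 hours, 5 concentrations, 96-well plates. GI50 marks 50% less growth.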 Activity calls are given as the source filed them. Rule as the data show it: active = GI50 up to about 1.1 µM and inactive = higher.
# Tests used:
# Experiment in all cases: NCI-60 cell line screen, 48 h
# A549 = tested on: A549
# BT-549 = tested on: BT-549
# HCT-116 = tested on: HCT-116
# HT-29 = tested on: HT-29
# K562 = tested on: K562
# M14 = tested on: M14
# MDA-N = tested on: MDA-N
# MOLT-4 = tested on: MOLT-4
# NCI-H460 = tested on: NCI-H460
# NCI/ADR-RES = tested on: NCI/ADR-RES
# OVCAR-4 = tested on: OVCAR-4
# OVCAR-8 = tested on: OVCAR-8
# SF-268 = tested on: SF-268
# SK-MEL-2 = tested on: SK-MEL-2
# SK-MEL-5 = tested on: SK-MEL-5
# SK-OV-3 = tested on: SK-OV-3
# SNB-75 = tested on: SNB-75
# UACC-257 = tested on: UACC-257
# UO-31 = tested on: UO-31
SMILES,GI50 (A549),GI50 (BT-549),GI50 (HCT-116),GI50 (HT-29),GI50 (K562),GI50 (M14),GI50 (MDA-N),GI50 (MOLT-4),GI50 (NCI-H460),GI50 (NCI/ADR-RES),GI50 (OVCAR-4),GI50 (OVCAR-8),GI50 (SF-268),GI50 (SK-MEL-2),GI50 (SK-MEL-5),GI50 (SK-OV-3),GI50 (SNB-75),GI50 (UACC-257),GI50 (UO-31)
Cc1ccc2c(O)cc(-c3cc4ccccc4s3)nc2n1,> 100 µM (inactive),> 100 µM (inactive),> 100 µM (inactive),> 84.7 µM (inactive),> 100 µM (inactive),> 100 µM (inactive),98.9 µM (inactive),> 100 µM (inactive),50.9 µM (inactive),> 57.7 µM (inactive),> 75 µM (inactive),30.3 µM (inactive),43.2 µM (inactive),> 100 µM (inactive),74.5 µM (inactive),45.1 µM (inactive),17.5 µM (inactive),> 100 µM (inactive),0.0353 µM (active)
O=C(OCc1ccccc1)c1ccc(NCc2cc(O)ccc2O)cc1,3.9 µM (inactive),0.713 µM (active),1.51 µM (inactive),6.24 µM (inactive),1.29 µM (inactive),1.91 µM (inactive),1.56 µM (inactive),0.535 µM (active),3.42 µM (inactive),1.47 µM (inactive),1.39 µM (inactive),1.42 µM (inactive),1.36 µM (inactive),2.05 µM (inactive),1.52 µM (inactive),2.7 µM (inactive),0.906 µM (active),1.6 µM (inactive),1.32 µM (inactive)
COc1cc(C2c3c(ccc4ccccc34)C(=O)C3CCC(=O)N32)cc(OC)c1O (configuration not stated),> 25 µM (inactive),> 25 µM (inactive),> 25 µM (inactive),> 25 µM (inactive),> 25 µM (inactive),> 25 µM (inactive),> 25 µM (inactive),> 25 µM (inactive),> 25 µM (inactive),> 25 µM (inactive),> 25 µM (inactive),> 25 µM (inactive),–,> 25 µM (inactive),–,> 25 µM (inactive),> 25 µM (inactive),> 25 µM (inactive),> 25 µM (inactive)
CC1OC(OC2C(Oc3cc(O)c4c(c3)O[C@H](c3ccc(O)cc3)CC4=O)OC(CO)C(O)C2O)C(O)C(O)C1O (some centres not stated),> 100 µM (inactive),> 100 µM (inactive),> 100 µM (inactive),> 100 µM (inactive),–,> 100 µM (inactive),> 100 µM (inactive),> 100 µM (inactive),–,> 100 µM (inactive),> 100 µM (inactive),> 100 µM (inactive),> 100 µM (inactive),> 100 µM (inactive),> 100 µM (inactive),> 100 µM (inactive),> 100 µM (inactive),> 100 µM (inactive),> 100 µM (inactive)
Nn1c(CCCCCCCCc2nnc(-c3c(O)ccc4ccccc34)n2N)nnc1-c1c(O)ccc2ccccc12,> 100 µM (inactive),> 100 µM (inactive),> 100 µM (inactive),> 100 µM (inactive),–,> 100 µM (inactive),> 100 µM (inactive),> 100 µM (inactive),> 100 µM (inactive),> 100 µM (inactive),> 100 µM (inactive),> 100 µM (inactive),> 100 µM (inactive),> 100 µM (inactive),> 100 µM (inactive),> 100 µM (inactive),> 100 µM (inactive),> 100 µM (inactive),> 100 µM (inactive)
CC1(Br)Cc2ccccc2C1=O (configuration not stated),12.5 µM (inactive),1.7 µM (inactive),3.86 µM (inactive),4.36 µM (inactive),3.33 µM (inactive),3.09 µM (inactive),3.92 µM (inactive),2.13 µM (inactive),> 10 µM (inactive),13.1 µM (inactive),6.89 µM (inactive),8.57 µM (inactive),4.68 µM (inactive),10.1 µM (inactive),5.71 µM (inactive),9.06 µM (inactive),13 µM (inactive),9.53 µM (inactive),6.95 µM (inactive)
CC1(C)CC[C@]2(C(=O)O)CC[C@]3(C)C(=CC[C@@H]4[C@@]5(C)CC[C@H](OC6OC(C(=O)O)C(O)C(O)C6O)C(C)(C)[C@@H]5CC[C@]43C)[C@@H]2C1 (some centres not stated),18.8 µM (inactive),20.9 µM (inactive),16.8 µM (inactive),15.1 µM (inactive),17 µM (inactive),16.9 µM (inactive),18.4 µM (inactive),19.8 µM (inactive),18.7 µM (inactive),17.7 µM (inactive),16.8 µM (inactive),20.8 µM (inactive),17.3 µM (inactive),15.4 µM (inactive),19.1 µM (inactive),19.5 µM (inactive),18.1 µM (inactive),16.4 µM (inactive),19.5 µM (inactive)
CC(NC(=O)C(N)CC(=O)O)NC(=O)N1CCCC1 (configuration not stated),> 100 µM (inactive),> 100 µM (inactive),> 100 µM (inactive),> 100 µM (inactive),> 100 µM (inactive),> 100 µM (inactive),> 100 µM (inactive),> 100 µM (inactive),> 100 µM (inactive),> 100 µM (inactive),> 100 µM (inactive),> 100 µM (inactive),> 100 µM (inactive),> 100 µM (inactive),> 100 µM (inactive),> 100 µM (inactive),> 100 µM (inactive),> 100 µM (inactive),> 100 µM (inactive)
C/C(=N/NC(=S)Nc1cccc(Cl)c1)c1ccccn1,0.802 µM (active),1.82 µM (inactive),< 0.0161 µM (active),0.0488 µM (active),0.0324 µM (active),0.242 µM (active),0.776 µM (active),< 0.0156 µM (active),0.357 µM (active),< 0.018 µM (active),1.05 µM (active),0.0834 µM (active),0.142 µM (active),1.2 µM (inactive),0.37 µM (active),0.265 µM (active),2.95 µM (inactive),< 0.0208 µM (active),0.269 µM (active)
Nc1nc(N)c(N=O)c(Nc2ccc(O)cc2)n1,> 81.3 µM (inactive),> 40.4 µM (inactive),> 73.3 µM (inactive),18 µM (inactive),> 45.6 µM (inactive),6.05 µM (inactive),28.8 µM (inactive),16.1 µM (inactive),> 61.1 µM (inactive),1.58 µM (inactive),> 48.8 µM (inactive),32 µM (inactive),38 µM (inactive),> 62.1 µM (inactive),26.5 µM (inactive),18.1 µM (inactive),18.2 µM (inactive),> 66.8 µM (inactive),41.5 µM (inactive)
Cn1c(-c2ccccc2)cc(-c2ccc3c(c2)OCO3)c1-c1cccs1,> 100 µM (inactive),> 100 µM (inactive),96.8 µM (inactive),> 100 µM (inactive),> 100 µM (inactive),> 100 µM (inactive),> 100 µM (inactive),> 100 µM (inactive),> 100 µM (inactive),> 100 µM (inactive),> 100 µM (inactive),> 100 µM (inactive),> 100 µM (inactive),> 100 µM (inactive),> 100 µM (inactive),> 100 µM (inactive),> 100 µM (inactive),> 100 µM (inactive),> 100 µM (inactive)
O=C(O)C(C1NCCS1)N1Cc2ccccc2C1 (configuration not stated),> 100 µM (inactive),> 100 µM (inactive),> 100 µM (inactive),> 100 µM (inactive),> 100 µM (inactive),> 100 µM (inactive),> 100 µM (inactive),> 100 µM (inactive),> 100 µM (inactive),> 100 µM (inactive),> 100 µM (inactive),> 100 µM (inactive),–,> 100 µM (inactive),> 100 µM (inactive),> 100 µM (inactive),> 100 µM (inactive),> 100 µM (inactive),> 100 µM (inactive)
CCOC(=O)C1=NOC2(C=C(Br)C(=O)C(Br)=C2)C1,22 µM (inactive),5.21 µM (inactive),1.1 µM (active),1.97 µM (inactive),1.37 µM (inactive),1.67 µM (inactive),1.64 µM (inactive),< 0.0346 µM (active),6.55 µM (inactive),2.97 µM (inactive),1.8 µM (inactive),2.04 µM (inactive),14.8 µM (inactive),6.84 µM (inactive),7.67 µM (inactive),8.39 µM (inactive),16.9 µM (inactive),1.34 µM (inactive),1.09 µM (active)
CC(C)=NOC(=O)OC[C@H]1O[C@@H](n2cnc3c(N)ncnc32)C(O)C1O (some centres not stated),> 100 µM (inactive),> 100 µM (inactive),–,85.3 µM (inactive),30.1 µM (inactive),87.7 µM (inactive),43.3 µM (inactive),> 100 µM (inactive),40.9 µM (inactive),> 100 µM (inactive),> 100 µM (inactive),> 100 µM (inactive),> 100 µM (inactive),> 100 µM (inactive),> 100 µM (inactive),> 100 µM (inactive),> 100 µM (inactive),–,> 100 µM (inactive)
C[C@H](OC(=O)/C=C/c1ccc(O)c(O)c1)[C@H](C)OC(=O)/C=C/c1ccc(O)c(O)c1,7.94 µM (inactive),10.4 µM (inactive),3.72 µM (inactive),12.2 µM (inactive),4.61 µM (inactive),6.19 µM (inactive),4.45 µM (inactive),2.49 µM (inactive),4.11 µM (inactive),12.2 µM (inactive),5.09 µM (inactive),6.15 µM (inactive),7.43 µM (inactive),10.4 µM (inactive),6.12 µM (inactive),16.3 µM (inactive),15.7 µM (inactive),10.1 µM (inactive),4.8 µM (inactive)
